Laboratory results taken from PubChem BioAssay (NCI).
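Briefly, cells in 96-well plates were exposed to five compound concentrations for 48 h, and endpoints were estimated by linear interpolation. GI50: concentration for 50% inhibition of growth. Definition used: TGI = concentration required for complete inhibition of growth.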

Legend:
Experiment in all cases: inhibition of tumour cell growth, NCI panel, 48 h
786-0 renal = test system: 786-0 renal
A498 renal = test system: A498 renal
A549 NSCLC = test system: A549 NSCLC
ACHN renal = test system: ACHN renal
BT-549 breast = test system: BT-549 breast
CAKI-1 renal = test system: CAKI-1 renal
CCRF-CEM leukemia = test system: CCRF-CEM leukemia
COLO 205 colon = test system: COLO 205 colon
DU-145 prostate = test system: DU-145 prostate
HCC-2998 colon = test system: HCC-2998 colon
HCT-116 colon = test system: HCT-116 colon
HCT-15 colon = test system: HCT-15 colon
HL-60(TB) leukemia = test system: HL-60(TB) leukemia
HOP-62 NSCLC = test system: HOP-62 NSCLC
HOP-92 NSCLC = test system: HOP-92 NSCLC
HS 578T breast = test system: HS 578T breast
IGROV1 ovarian = test system: IGROV1 ovarian
LOX IMVI melanoma = test system: LOX IMVI melanoma
M14 melanoma = test system: M14 melanoma
MCF7 breast = test system: MCF7 breast
MDA-MB-231 breast = test system: MDA-MB-231 breast
MDA-MB-435 = test system: MDA-MB-435
MOLT-4 leukemia = test system: MOLT-4 leukemia
NCI-H226 lung = test system: NCI-H226 lung
NCI-H23 lung = test system: NCI-H23 lung
NCI-H460 lung = test system: NCI-H460 lung

How did the GI50 (786-0 renal) turn out when CCC1CCc2nc3sc(C(=O)Nc4cccc(F)c4)c(N)c3cc2C1 (configuration not stated) was run?
Its GI50 is 0.701 µM.

What about the TGI (786-0 renal) of the same compound?
The TGI was > 100 µM.

And the GI50 (A498 renal)?
The GI50 was 0.602 µM.

And the TGI (A498 renal)?
The TGI was > 100 µM.

What about the GI50 (A549 NSCLC) of the same compound?
The GI50 was > 100 µM.

And the TGI (A549 NSCLC)?
The TGI was > 100 µM.

And the GI50 (ACHN renal)?
Its GI50 is > 100 µM.

What about the TGI (ACHN renal) of the same compound?
Its TGI is > 100 µM.

And the GI50 (BT-549 breast)?
Its GI50 is > 100 µM.

What about the TGI (BT-549 breast) of the same compound?
Its TGI is > 100 µM.

And the GI50 (CAKI-1 renal)?
The GI50 was 0.867 µM.

And the TGI (CAKI-1 renal)?
Its TGI is > 100 µM.

And the GI50 (CCRF-CEM leukemia)?
The GI50 was 1.79 µM.

And the TGI (CCRF-CEM leukemia)?
Its TGI is > 100 µM.

What about the GI50 (COLO 205 colon) of the same compound?
The GI50 was 51.8 µM.

What about the TGI (COLO 205 colon) of the same compound?
The TGI was > 100 µM.

What about the GI50 (DU-145 prostate) of the same compound?
Its GI50 is > 100 µM.

What about the TGI (DU-145 prostate) of the same compound?
The TGI was > 100 µM.

What about the GI50 (HCC-2998 colon) of the same compound?
The GI50 was > 100 µM.

What about the TGI (HCC-2998 colon) of the same compound?
The TGI was > 100 µM.

And the GI50 (HCT-116 colon)?
Its GI50 is 2.25 µM.

And the TGI (HCT-116 colon)?
Its TGI is > 100 µM.

And the GI50 (HCT-15 colon)?
Its GI50 is 0.428 µM.

And the TGI (HCT-15 colon)?
The TGI was > 100 µM.

And the GI50 (HL-60(TB) leukemia)?
The GI50 was 0.343 µM.

And the TGI (HL-60(TB) leukemia)?
Its TGI is > 100 µM.

And the GI50 (HOP-62 NSCLC)?
Its GI50 is > 100 µM.

What about the TGI (HOP-62 NSCLC) of the same compound?
The TGI was > 100 µM.

What about the GI50 (HOP-92 NSCLC) of the same compound?
Its GI50 is > 100 µM.

What about the TGI (HOP-92 NSCLC) of the same compound?
Its TGI is > 100 µM.

What about the GI50 (HS 578T breast) of the same compound?
Its GI50 is > 100 µM.

And the TGI (HS 578T breast)?
The TGI was > 100 µM.

What about the GI50 (IGROV1 ovarian) of the same compound?
The GI50 was > 100 µM.

What about the TGI (IGROV1 ovarian) of the same compound?
The TGI was > 100 µM.

And the GI50 (LOX IMVI melanoma)?
Its GI50 is > 100 µM.

What about the TGI (LOX IMVI melanoma) of the same compound?
Its TGI is > 100 µM.

And the GI50 (M14 melanoma)?
Its GI50 is 0.402 µM.

And the TGI (M14 melanoma)?
The TGI was > 100 µM.

What about the GI50 (MCF7 breast) of the same compound?
The GI50 was 0.313 µM.

And the TGI (MCF7 breast)?
Its TGI is > 100 µM.

And the GI50 (MDA-MB-231 breast)?
Its GI50 is > 100 µM.

What about the TGI (MDA-MB-231 breast) of the same compound?
Its TGI is > 100 µM.

What about the GI50 (MDA-MB-435) of the same compound?
Its GI50 is 0.11 µM.

What about the TGI (MDA-MB-435) of the same compound?
Its TGI is 0.616 µM.

And the GI50 (MOLT-4 leukemia)?
The GI50 was 39.8 µM.

What about the TGI (MOLT-4 leukemia) of the same compound?
The TGI was > 100 µM.

And the GI50 (NCI-H226 lung)?
The GI50 was > 100 µM.

And the TGI (NCI-H226 lung)?
Its TGI is > 100 µM.

And the GI50 (NCI-H23 lung)?
The GI50 was > 100 µM.

And the TGI (NCI-H23 lung)?
The TGI was > 100 µM.

What about the GI50 (NCI-H460 lung) of the same compound?
The GI50 was > 100 µM.

What about the TGI (NCI-H460 lung) of the same compound?
The TGI was > 100 µM.
